Strand notation (5' to 3'): a small letter for the sugar, then the base; units joined by * are phosphorothioate-linked, units joined directly phosphodiester-linked; [ ] holds rarer units or linkages, { } end groups; capitals alone tell only the bases. e = 2'-O-(2-methoxyethyl) (MOE); [5mC] = 5-methylcytosine; d = 2'-deoxy (DNA)
Columns and labels:
Format in all cases: in vivo
[1] = Body and organ weights of cynomolgus monkeys (Example 46); parameters: Liver weight / Spleen weight / Kidney weight: unit not given here; conditions: for Kidney weight / Liver weight / Spleen weight: day 55, after euthanasia
Description: (§1) Groups, each consisting of two male and two female monkeys, were injected subcutaneously with 25 mg/kg of ISIS 416850, ISIS 449709, ISIS 445522, ISIS 449710, ISIS 449707, ISIS 449711, ISIS 449708, 416858, and ISIS 445531. Antisense oligonucleotide was administered to the monkeys at 25 mg/kg three times per week for week 1 and 25 mg/kg twice per week for weeks 2 to 8. A control group, consisting of two male and two female monkeys was injected subcutaneously with PBS according to the same dosing regimen. Body weights were taken 14 days and 7 days before the start of treatment and were then measured weekly throughout the treatment period. Blood samples were collected 14 days and 5 days before the start of treatment and subsequently several times during the dosing regimen for PT and aPTT measurements, and measurement of various hematologic factors. On day 55, the monkeys were euthanized by exsanguination while under deep anesthesia, and organs harvested for further analysis.
Organ weights were taken after the animals were euthanized on day 55, and livers, kidneys and spleens were harvested.

[2] = tested on: IL-1β, IL-6, IFN-γ, TNF-α, IL-8, MIP-1α, MCP-1, MIP-1β, RANTES; test: Cytokine and chemokine assays in cynomolgus monkeys (Example 46)
Description: as §1
Blood samples obtained from all monkey groups were sent to Pierce Biotechnology (Woburn, Mass.) for measurements of chemokine and cytokine levels. Levels of IL-1β, IL-6, IFN-γ, and TNF-α were measured using the respective primate antibodies and levels of IL-8, MIP-1α, MCP-1, MIP-1β and RANTES were measured using the respective cross-reacting human antibodies. Measurements were taken 14 days before the start of treatment and on day 55, when the monkeys were euthanized.

[3] = Kidney function, BUN, urine protein to creatinine ratio in cynomolgus monkeys (Example 46); conditions: for Urine protein/creatinine ratio: day 49
Description: as §1
To evaluate the impact of ISIS oligonucleotides on kidney function, urine samples were collected on different days. […] The ratio of urine protein to creatinine in urine samples after antisense oligonucleotide treatment was also calculated for day 49 and results are presented in Table 156. As observed in Tables 155 and 156, there were no significant increases in any of the kidney metabolic markers after antisense oligonucleotide treatment.

[4] = day-14 (before start of treatment)
[5] = Day −5 (before start of treatment)
[6] = Day −14 (before start of treatment)

Row | Substance | body weight ([1]; day 1) [g] | body weight ([1]; day 8) [g] | body weight ([1]; day 15) [g] | body weight ([1]; day 22) [g] | body weight ([1]; day 29) [g] | body weight ([1]; day 36) [g] | body weight ([1]; day 43) [g] | body weight ([1]; day 50) [g] | Kidney weight [1] | Liver weight [1] | Spleen weight [1] | body weight ([1]; day −7) [g] | body weight ([1]; day −14) [g] | IFN-γ level ([2]; day 55) [pg/mL] | IL-1ß level ([2]; day 55) [pg/mL] | IL-6 level ([2]; day 55) [pg/mL] | IL-8 level ([2]; day 55) [pg/mL] | MCP-1 level ([2]; day 55) [pg/mL] | MIP-1ß level ([2]; day 55) [pg/mL] | MIP-1α level ([2]; day 55) [pg/mL] | other results
1 | ISIS 416850: MOE gapmer, nucleobases 1275 to 1318 of SEQ ID NO: 1 (Table 8) (antisense TGCACAGTTTCTGGCAGGCC; MOE gapmer, wing and gap sizes not given here) | 2083 | 2072 | 2147 | 2139 | 2159 | 2136 | 2186 | 2143 | 0.51 | 2.5 | 0.17 | 2074 | 2061 | 19 | 106 | 1 | 620 | 887 | 50 | 17 | RANTES level ([2]; day 55): 27503 pg/mL; TNF-α level ([2]; day 55): 16 pg/mL; IFN-γ level [2, 4]: 115 pg/mL; IL-1ß level [2, 4]: 215 pg/mL; IL-6 level [2, 4]: 1 pg/mL; IL-8 level [2, 4]: 45 pg/mL; MCP-1 level [2, 4]: 434 pg/mL; MIP-1ß level [2, 4]: 31 pg/mL; MIP-1α level [2, 4]: 14 pg/mL; RANTES level [2, 4]: 4560 pg/mL; TNF-α level [2, 4]: 4 pg/mL; BUN levels ([3]; Day 31): 21 mg/dL; BUN levels ([3]; Day 55): 26 mg/dL; BUN levels [3, 5]: 23 mg/dL; BUN levels [3, 6]: 24 mg/dL; Urine protein/creatinine ratio [3]: 0.08
2 | ISIS 416858: MOE gapmer, nucleobases 1275 to 1318 of SEQ ID NO: 1 (Table 8) (antisense ACGGCATTGGTGCACAGTTT; MOE gapmer, wing and gap sizes not given here) | 2115 | 2149 | 2162 | 2188 | 2196 | 2210 | 2238 | 2225 | 0.47 | 2.6 | 0.24 | 2092 | 2073 | 9 | 28 | 1 | 167 | 512 | 47 | 11 | RANTES level ([2]; day 55): 5925 pg/mL; TNF-α level ([2]; day 55): 15 pg/mL; IFN-γ level [2, 4]: 32 pg/mL; IL-1ß level [2, 4]: 103 pg/mL; IL-6 level [2, 4]: 0 pg/mL; IL-8 level [2, 4]: 224 pg/mL; MCP-1 level [2, 4]: 328 pg/mL; MIP-1ß level [2, 4]: 37 pg/mL; MIP-1α level [2, 4]: 11 pg/mL; RANTES level [2, 4]: 6521 pg/mL; TNF-α level [2, 4]: 4 pg/mL; BUN levels ([3]; Day 31): 23 mg/dL; BUN levels ([3]; Day 55): 24 mg/dL; BUN levels [3, 5]: 24 mg/dL; BUN levels [3, 6]: 25 mg/dL; Urine protein/creatinine ratio [3]: 0.05
3 | ISIS 445522: 5-8-5 or 6-8-6 MOE microwalk gapmer (Table 44) (antisense eG*e[5mC]*eA*e[5mC]*eA*dG*dT*dT*dT*d[5mC]*dT*dG*dG*e[5mC]*eA*eG*eG*e[5mC]) | 2047 | 2094 | 2092 | 2114 | 2125 | 2121 | 2142 | 2127 | 0.55 | 2.6 | 0.23 | 2042 | 2050 | 83 | 341 | 2 | 100 | 592 | 63 | 22 | RANTES level ([2]; day 55): 16154 pg/mL; TNF-α level ([2]; day 55): 18 pg/mL; IFN-γ level [2, 4]: 172 pg/mL; IL-1ß level [2, 4]: 188 pg/mL; IL-6 level [2, 4]: 5 pg/mL; IL-8 level [2, 4]: 32 pg/mL; MCP-1 level [2, 4]: 297 pg/mL; MIP-1ß level [2, 4]: 27 pg/mL; MIP-1α level [2, 4]: 22 pg/mL; RANTES level [2, 4]: 3477 pg/mL; TNF-α level [2, 4]: 16 pg/mL; BUN levels ([3]; Day 31): 22 mg/dL; BUN levels ([3]; Day 55): 22 mg/dL; BUN levels [3, 5]: 22 mg/dL; BUN levels [3, 6]: 23 mg/dL; Urine protein/creatinine ratio [3]: 0.01

— US20230263822A1, “MODULATION OF FACTOR 11 EXPRESSION” (Ionis Pharmaceuticals, Inc., priority 2008, published 2023)
